# Measured values taken from US20100311714A1, “1H-IMIDAZO[4,5-c]QUINOLINONE COMPOUNDS” (priority 2009, published 2010).
# Experiments:
# Assay type in all cases: cell-based
# [1] = tested on: PKB Ser473 phosphorylation in Rat1-myr-HA-p110 alpha cells; assay: Reverse protein array, PKB Ser473 phosphorylation in Rat1-myr-HA-p110 alpha cells; settings: Rattus norvegicus, 0.5 h, 30 minutes compound incubation, read-out: p-PKB/IC50_alpha
# Description: (§1) No. 15140-114) and 10 μg/ml Puromycine (Sigma, cat. No. P9620).
# (§2) The Rat1-myr-HA-p110 alpha, beta and delta cells were trypsinized and counted with a CASY TT cell counter (Schärfe System GmbH, Reutlingen Germany). The cells were diluted in fresh DMEM complete medium and 3×10^4 cells/150 μl/well seeded in 96-well TPP-tissue culture plates (TPP, cat. No. 92096). The plates were incubated at 37° C. and 5% CO2 under humidified condition for at least 20 h. Compound of formula I working solutions were prepared freshly as serial 8 step dilutions (vol/vol) in DMSO on the day of the experiment. The working solutions were further diluted 1/500 in cell culture medium to get final compound concentrations of 10, 3.333, 1.111, 0.370, 0.123, 0.041, 0.014, 0.005 μM. The final DMSO concentration was kept constant at 0.2%. cell culture medium containing 0.2% DMSO was used as vehicle treatment control. Post incubation, the cells were treated with the serial compound dilution. 50 μl of the compound medium mixture was added to the wells containing cells and 150 μl DMEM medium and incubated for 30 minutes (37° C., 5% CO2). After 30 minutes of incubation, the medium mixture was quickly removed by aspiration. For cell lysis, a mixture of 10% CLB1 CeLyA lysis buffer (Zeptosens, cat. No. 9000), 90% CSBL1 CeLyA spotting buffer (Zeptosens, cat. No. 9020) was freshly prepared and supplemented with 1% Octyl β-D-glucopyranoside (SIGMA, cat. No. 08001-5G) and 1 mM Na-Orthovanadate (Sigma, cat No. S-6508). 50 μl of the described lysis buffer mix was added to each well, followed by 10 minutes of incubation on ice. After an additional freeze-thaw cycle, another 50 μl of the lysis buffer mix without Octyl β-D-glucopyranoside was added to the wells, and 90 μl of the cell lysate was transferred to a 96-well V-bottom plate (Fisher Scientific, cat. No. 6067Y), followed by a centrifugation step (5 min, 1500 rpm at 19° C. in an Eppendorf 5810R centrifuge) to remove the unlysed cell debris.
# (§3) The samples were spotted onto ZeptoMARK® PWG protein microarray chips (Zeptosens, Witterswil, Switzerland) with the piezoelectric microdispense-based, non-contact Nano-Plotter 2.1 (GeSiM, Grosserkmannsdorf, Germany). Each sample was spotted at 4 different sample concentrations (d1=100%, d2=75%, d3=50%, d4=25%) by diluting the cell lysate with the corresponding volume of lysis buffer mix. After spotting the ZeptoMARK® protein microarrays, the chips are incubated for 1 hour at 37° C. To receive a uniform blocking result, the CeLyA blocking buffer BB1 (Zeptosens, cat. No. 9040) is administered via an ultrasonic nebulizer. After 20 minutes of blocking the chips are extensively rinsed with deionized water (Milli-Q quality, 18MΩ×cm) and dried in a nitrogen air flow.
# (§4) After the sample spotting and blocking procedure, the ZeptoMARK® chips were transferred to the ZeptoCARRIER (Zeptosens, cat. No. 1100), whose six flow cells individually address the six arrays on a chip, and washed twice with 200 μl CAB1 CeLyA assay buffer (Zeptosens, cat. No. 9032). The assay buffer was then aspirated and each compartment incubated with 100 μl of the primary target antibody (pAkt Ser473; CST#9271) at RT over night. Post incubation, the primary antibody was removed, the arrays washed twice with CAB1 buffer and further incubated with 100 μl of Alexa fluor 647-labeled anti rabbit IgG Fab fragments (Invitrogen; #Z25305) for one hour at RT in the dark. After incubation, the arrays were washed twice with 200 μl CAB1 buffer. The fluorescence of the target-bound Fab fragments is read out on the ZeptoReader (Zeptosens, Witterswil, Switzerland) using a laser (excitation wavelength 635 nm) and a CCD camera. The fluorescence signal was assessed with exposure times of 1, 3, 5 and 10 seconds, depending on the intensity of the signal. The resulting four images taken per array are stored as 16-bit TIF files. […]
# [2] = tested on: PKB Ser473 phosphorylation in Rat1-myr-HA-p110 beta cells; assay: Reverse protein array, PKB Ser473 phosphorylation in Rat1-myr-HA-p110 beta cells; settings: Rattus norvegicus, 0.5 h, 30 minutes compound incubation, read-out: p-PKB/IC50_beta
# Description: as §1, §2, §3, §4
# [3] = tested on: PKB Ser473 phosphorylation in Rat1-myr-HA-p110 delta cells; assay: Reverse protein array, PKB Ser473 phosphorylation in Rat1-myr-HA-p110 delta cells; settings: Rattus norvegicus, 0.5 h, 30 minutes compound incubation, read-out: p-PKB/IC50_delta
# Description: as §1, §2, §3, §4
SMILES,IC50 [1] [nM],IC50 [2] [nM],IC50 [3] [nM]
"COc1ccc(-n2c(=O)n(C)c3cnc4ccc(-c5cnc(N)c(C(F)(F)F)c5)cc4c32)c(C)n1 [Example 11.6, 8-(6-Amino-5-trifluoromethyl-pyridin-3-yl)-1-(6-methoxy-2-methyl-pyridin-3-yl)-3-methyl-1,3-dihydro-imidazo[4,5-c]quinolin-2-one]",6.11,13,15.5
"CNc1ccc(-c2ccc3ncc4c(c3c2)n(-c2ccc(OC)nc2C)c(=O)n4C)cn1 [Example 11.2, 1-(6-Methoxy-2-methyl-pyridin-3-yl)-3-methyl-8-(6-methylamino-pyridin-3-yl)-1,3-dihydro-imidazo[4,5-c]quinolin-2-one]",6.97,15.2,31.4

# Second part, the compound after the results:
IC50 [1] [nM],IC50 [2] [nM],IC50 [3] [nM],SMILES
8.83,18.1,23.2,"CNc1ncc(-c2ccc3ncc4c(c3c2)n(-c2ccc(OC)nc2C)c(=O)n4C)cn1 [Example 11.3, 1-(6-Methoxy-2-methyl-pyridin-3-yl)-3-methyl-8-(2-methylamino-pyrimidin-5-yl)-1,3-dihydro-imidazo[4,5-c]quinolin-2-one]"
86.6,127,136,"COc1ccc(-n2c(=O)n(C)c3cnc4ccc(-c5cnc(N(C)C)nc5)cc4c32)c(C)n1 [Example 11.4, 8-(2-Dimethylamino-pyrimidin-5-yl)-1-(6-methoxy-2-methyl-pyridin-3-yl)-3-methyl-1,3-dihydro-imidazo[4,5-c]quinolin-2-one]"
16.9,40.8,66.9,"COc1ccc(-c2ccc3ncc4c(c3c2)n(-c2ccc(OC)nc2C)c(=O)n4C)cn1 [Example 11.5, 1-(6-Methoxy-2-methyl-pyridin-3-yl)-8-(6-methoxy-pyridin-3-yl)-3-methyl-1,3-dihydro-imidazo[4,5-c]quinolin-2-one]"
